Reference: patent US9346777B2, “Antiprotozoal compounds” (MediSynergics, LLC, priority 2012, dated 2016)

tested on: T. brucei brucei; assay: T. brucei brucei growth inhibition assay (bloodstream forms, CellTiter-Glo ATP-bioluminescence); assay type: cell-based; conditions: Trypanosoma brucei; bloodstream forms of T. brucei brucei clone 427-221a; 40 hours at 37° C.; final DMSO 0.5%; 95% confidence intervals in parentheses
Procedure: The growth inhibition assay for T. brucei brucei was conducted as described previously by Z. B. Mackey et al (Kenny K. H. Ang, Joseline Ratnam, Jiri Gut, Jennifer Legac, Elizabeth Hansell, Zachary B. Mackey, Katarzyna M. Skrzypczynska, Anjan Debnath, Juan C. Engel, Philip J. Rosenthal, James H. McKerrow, Michelle R. Arkin, Adam R. Renslo (2011) “Mining a Cathepsin Inhibitor Library for New Antiparasitic Drug Leads”, PLoS Neglected Tropical Diseases, 5(5):e1023). Bloodstream forms of the monomorphic T. brucei brucei clone 427-221a were grown in complete HMI-9 medium containing 10% FBS, 10% Serum Plus medium (Sigma Inc., St. Louis, Mo., USA), 50 U/mL penicillin and […] (Invitrogen) at 37° C. under a humidified atmosphere and 5% CO2. Inhibitor stocks were prepared in 100% DMSO and screened at […] for percent inhibition values or serially diluted from […] in 10% DMSO for IC50 determinations. […] of diluted parasites ([…]) in sterile Greiner 96-well flat white opaque culture plates such that the final DMSO concentration was 0.5%. The 0% inhibition control wells contained 0.5% DMSO while 100% inhibition control wells contained […] thimerosal (Sigma). After compound addition, plates were incubated for 40 hours at 37° C. At the end of the incubation period, […] of CellTiter-Glo™ reagent (Promega Inc., Madison, Wis., USA) was added to each well and plates were placed on an orbital shaker at room temperature for 2 min to induce lysis. After an additional 10 min of incubation without shaking to stabilize the signal, the ATP-bioluminescence of each well was determined using an Analyst HT plate reader (Molecular Devices, Sunnyvale, Calif., USA). Raw values were converted to log 10 and percentage inhibition calculated relative to the controls. IC50 curve fittings were performed with Prism 4 software as above. Pentamidine was used as a comparator in the assay.

Row | SMILES | IC50 [µM]
1 | CN(C)CCCC1(c2ccc(F)cc2)OCc2cc(C(=N)N)ccc21 (centres unmarked) [Example 1, 1-[3-(dimethylamino)propyl]-1-(4-fluorophenyl)-1,3-dihydro-2-benzofuran-5-carboximidamide] | 32
2 | CN(C)CCCC1(c2ccc(F)cc2)OCc2cc(C(=N)NCc3ccccc3)ccc21 (centres unmarked) [Example 4, N-benzyl-1-[3-(dimethylamino)propyl]-1-(4-fluorophenyl)-1,3-dihydro-2-benzofuran-5-carboximidamide] | 8.8

Next, values leading:

Row | IC50 [µM] | SMILES
3 | 1.4 | CN(C)CCCC1(c2ccc(F)cc2)OCc2cc(-c3ncc[nH]3)ccc21 (centres unmarked) [Example 7]
4 | 37 | CN(C)CCCC1(c2ccc(F)cc2)OCc2cc(C(=N)N3CCOCC3)ccc21 (centres unmarked) [Example 5, 1-[1-[3-(dimethylamino)propyl]-1-(4-fluorophenyl)-1,3-dihydro-2-benzofuran-5-yl]-1-(morpholin-4-yl)methan-imine]
5 | 24 | CN(C)CCCC1(c2ccc(F)cc2)OCc2cc(C(=N)N3CCCC3)ccc21 (centres unmarked) [Example 6, 1-[1-[3-(dimethylamino)propyl]-1-(4-fluorophenyl)-1,3-dihydro-2-benzofuran-5-yl]-1-(pyrrolidin-1-yl)methan-imine]
